Consider 2 compounds from patent publication US12678508B2, “Compounds for targeted degradation of interleukin-2-inducible T-cell kinase and methods of use” (DANA-FARBER CANCER INSTITUTE, INC., priority 2020, dated 2026).

Structures are written as SMILES. Several values for one entry are separate records, joined by “and”; a condition that tells them apart may be missing. Identical values can stand only once.

One series has as its system DERL-2 cells. Briefly: Cell proliferation and cell death (PI, flow cytometry) of DERL-2 cells in culture with IL-2. The series is classed as cell-based. How it is done: DERL-2 cells supplemented in culture with IL-2 (FIG. 4A) or without IL-2 (FIG. 4B and FIG. 4C) were treated with compound 1 at the indicated doses. Cells were split at 1:5 ratio with fixed concentration of compound 1 every two days. Cell numbers and cell death were quantified by flow cytometry. Propidium iodide (PI) solution, a marker of cell death, was added to cells 5 minutes before flow cytometry detection. Percent PI-positive is used to quantify cell death.
DERL-2 cells in culture with IL-2 were treated with either 1 μM of compound 1, 1 μM BMS509744 or DMSO. Cells were split at 1:5 ratio and fresh compounds were added every two days. Cell numbers and cell death were quantified by flow cytometry. PI solution was added to cells 5 minutes before flow cytometry detection to indicate cell death.

The next series concerns Hut78 cells. As to the kind of experiment: Cell growth and cell death (PI, flow cytometry) of Hut78 cells. The series is classed as cell-based. As to conditions: Hut78 cells (independent of IL-2). Background: In flow cytometry, cells or beads pass a laser one at a time.
A further series concerns Molt4 cells. Briefly: Proteome-wide profiling by TMT quantitative mass spectrometry. Format: cell-based. The following applies: 100 nM, 5 hours. The procedure:
Proteome-wide profiling experiments were performed according to the reported protocol (B. Jiang et al., Angew. Chem. Int. Ed. Engl. 58:6321-6326 (2019)). Molt4 cells were treated with DMSO vehicle, 100 nM of compound 1 or 100 nM of compound 2 for 5 hours. Protein abundance measurements were made using TMT quantitative mass spectrometry and significant changes were assessed by moderated t-test as implemented in the limma package. The log2 fold change (log2 FC) is shown on the […] and negative log10 p value (−log10 p value) on the […] for three independent biological replicates of each treatment.

The nature of series [1]: Mouse pharmacokinetic (PK) study. Format: in vivo. The procedure:
Standard PK studies were conducted using male C57BI/6 mice obtained from Scripps Fla. A single 2 mg/kg intravenous (IV) injection of compound 1 solution in 5/90 DMSO/10% Captisol® was evaluated. Plasma concentrations of compound 1 reported at each of the 8 time points (5 min, 15 min, 30 min, 1 h, 2 h, 4 h, 6 h and 8 h post dosing) are the average values from 3 test animals.

For series [2], the target named is T1, ITK (Homo sapiens, UniProt Q08881).
T1 sequence (Q08881 1-620): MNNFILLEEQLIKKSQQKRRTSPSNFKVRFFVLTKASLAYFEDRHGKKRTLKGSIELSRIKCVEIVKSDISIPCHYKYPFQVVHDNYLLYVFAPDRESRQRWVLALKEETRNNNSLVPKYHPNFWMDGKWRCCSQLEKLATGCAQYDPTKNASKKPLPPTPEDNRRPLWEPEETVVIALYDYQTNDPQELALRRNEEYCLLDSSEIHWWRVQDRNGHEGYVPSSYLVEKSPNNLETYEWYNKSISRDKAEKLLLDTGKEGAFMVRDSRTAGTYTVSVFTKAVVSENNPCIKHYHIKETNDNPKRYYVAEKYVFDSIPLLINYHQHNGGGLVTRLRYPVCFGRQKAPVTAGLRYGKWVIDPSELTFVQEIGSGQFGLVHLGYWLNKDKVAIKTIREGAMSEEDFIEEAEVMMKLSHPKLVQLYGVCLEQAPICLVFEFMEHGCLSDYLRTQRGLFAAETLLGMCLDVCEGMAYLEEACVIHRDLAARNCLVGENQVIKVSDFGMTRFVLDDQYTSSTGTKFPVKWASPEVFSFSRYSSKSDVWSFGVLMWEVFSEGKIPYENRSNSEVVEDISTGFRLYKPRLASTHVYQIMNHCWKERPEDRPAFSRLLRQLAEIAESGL
Briefly: ITK degradation in Hut78 cells (immunoblot). Format: cell-based. Also noted: endogenous in cells. As to conditions: 1 μM, 18 hours. The procedure: Hut78 cells (mycosis fungoides and Sezary syndrome) were treated with or without 1 μM of compound 1 for 18 hours. After treatment, Hut78 cells were lysed in Cell Lysis Buffer (Cell Signaling Technology®) on ice for 30 minutes and lysates were clarified by centrifugation. Immunoblotting for ITK was performed as described in Example 7 to evaluate changes in protein levels upon ITK degrader treatment.
(In general: A western blot detects proteins with antibodies after separation by electrophoresis.)

The target of series [3] is T1, ITK. Briefly: ITK degradation in DERL-2 cells (immunoblot). The series is classed as cell-based. Also on record: endogenous in cells; host or cells: DERL-2 cells. How it is done: (§1) DERL-2 cells (hepatosplenic T-cell lymphoma) were treated with compound 1 for either 4 hours (FIG. 1A) or 18 hours (FIG. 1B) at the indicated doses. After treatment, DERL-2 cells were lysed in Cell Lysis Buffer (Cell Signaling Technology®) on ice for 30 minutes and lysates were clarified by centrifugation. Immunoblotting for ITK was performed to evaluate changes in protein levels upon ITK degrader treatment. All samples were run with equal total protein content and immunoblotting was performed using antibodies that detect total ITK protein as well as GAPDH as a loading control followed by washing and binding of horseradish peroxidase (HRP)-conjugated secondary antibodies. Blots were developed using SuperSignal™ Pico chemiluminescent substrate (Thermo Scientific).
as §1, with “cells” for “cells (hepatosplenic T-cell lymphoma)”, “compound 1, compound 2 or ITK inhibitor (BMS509744)” for “compound 1”, “for” for “for either 4 hours (FIG. 1A) or”, “(FIG. 2)” for “(FIG. 1B)”, “After 18 hours,” for “After treatment,”

In series [4] the target is T1, ITK. Briefly: ITK degradation in DERL-2 cells with NAE inhibitor MLN4924 co-treatment. The series is classed as cell-based. Also on record: endogenous in cells; host or cells: DERL-2 cells. The following applies: 18 hours, combination with NAE inhibitor MLN4924. How it is done:
DERL-2 cells were treated with compound 1, the NEDD8-activating enzyme (NAE) inhibitor MLN4924, or in combination for 18 hours (FIG. 3) at […]. After 18 hours, DERL-2 cells were lysed in Cell Lysis Buffer (Cell Signaling Technology®) on ice for 30 minutes and lysates were clarified by centrifugation. Western blot was performed as described in Example 7.

In series [5] the target is T1, ITK. As to the kind of experiment: ITK degradation in DERL-2 cells after pre-treatment with excess BMS509744. Format: cell-based. Also on record: endogenous in cells; host or cells: DERL-2 cells. As to conditions: 10 μM BMS509744 4 hours, then 100 nM compound 1 4 hours. How it is done:
DERL-2 cells were pre-treated with or without 10 μM BMS509744 for 4 hours. After 4 hours, 100 nM compound 1 was added and cells were cultured for another 4 hours. After treatment, DERL-2 cells were lysed in Cell Lysis Buffer (Cell Signaling Technology®) on ice for 30 minutes and lysates were clarified by centrifugation. Western blot was performed as described in Example 7 to detect protein expression levels of ITK, IKZF1, IKZF3, and GAPDH.

Series [6] deals with T1, ITK. Briefly: In vivo ITK degradation in Hut78 xenograft tumors. Also on record: endogenous in cells; host or cells: Hut78 cells (in culture; or engrafted subcutaneously in NSG mice and purified from tumours); species or system mouse. The following applies: female NSG mice, engrafted Hut78 cells, 50 mg/kg intraperitoneal, 3 doses every 8 hours, 4 hours after last dose. How it is done: In vivo degradation studies were conducted using female NSG mice. 6 eight-week-old NSG mice were injected subcutaneously with 1*10^7 of Hut78 cells. The injected mice were monitored for tumor formation twice a week until tumor growth reaches an average of 500 mm^3. Mice were then randomized into 3 mice per group, and treated with either vehicle (7.5% DMSO, 20% (2-hydroxypropyl)-β-cyclodextrin [HP-β-CD]) or compound 1 at 50 mg/kg via intraperitoneal injection for 3 doses (every 8 hours×3). Four hours after the last doing, mice were sacrificed to harvest tumors. Tumor tissues were cut into small pieces and dissociated into single cell suspension following the instruction of Tumor Dissociation Kit (Miltenyi Biotec, #130-095-929). Suspension cells were then depleted of mouse cells (Catalog #19849, STEMCELL technology). Purified tumor cells were lysed in Cell Lysis Buffer (Cell Signaling Technology®) on ice for 30 minutes and lysates were clarified by centrifugation. Immunoblotting for ITK was performed as described in Example 7 to evaluate protein level changes.

[7] abbreviates: DERL-2 cells supplemented with IL-2.
[8] abbreviates: mouse, male C57BI/6 mice, single 2 mg/kg IV, plasma.

The term AUC(0-t) denotes the area under the concentration-time curve up to a stated or last time point. Broadly, the Cmax is the maximum level reached in the sampled fluid or tissue. As usually defined, the Tmax is the time from dosing to the highest level. For orientation: half-life means the time in which the quantity being followed falls by half. The low end stands for rapid decline, the high end for slow decline. For `COc1cc(C)c(Sc2cnc(NC(=O)c3ccc(N4CCN(CCCCCCCNC(=O)COc5cccc6c5C(=O)N(C5CCC(=O)NC5=O)C6=O)CC4)cc3)s2)cc1C(=O)N1CCN(C(C)=O)CC1` (stereo not drawn) [compound 1, N-(5-((5-(4-acetylpiperazine-1-carbonyl)-4-methoxy-2-methylphenyl)thio)thiazol-2-yl)-4-(4-(7-(2-((2-(2,6-dioxopiperidin-3-yl)-1,3-dioxoisoindolin-4-yl)oxy)acetamido)heptyl)piperazin-1-yl)benzamide], in the series on DERL-2 cells (setting [7]), the “cell death (percent PI-positive) compared with DMSO” value is given as “induced cell death” and the “inhibition of cell proliferation compared with DMSO” value is listed as greater than 10 fold. In addition, the “cell proliferation and cell death of TCL cells” value with DERL-2 cells (DERL-2 cells with IL-2, 1 μM) was “blocked cell proliferation and induced cell death”. Moreover, in the series with Hut78 cells, the “cell growth and cell death” value is on record as “did not inhibit cell growth or induce cell death”. In the series on Molt4 cells, the “proteins downregulated (relative protein abundance)” value is “downregulated ITK, IKZF1, IKZF3, ZFP91, RNF166, ZNF653 and ZNF692”. The “AUC % Extrap” value in [1] (male C57BI/6 mice, single 2 mg/kg IV, plasma) was 5.14 % Extrap. In addition, in [1] (mouse PK, 2 mg/kg IV), the “in vivo metabolic stability, exposure and clearance rate (overall assessment)” value is “good in vivo metabolic stability, exposure and clearance rate”. In series [1] (setting [8]), the AUC(0-t) is 1370 ng·h/mL and 1.34 µM·h; the Cmax was 1710 ng/mL and 1.67 µM; the Tmax is 4.8 min; the half-life is 2.18 h. Moreover, the AUC(0-inf) in series [1] (mouse, male C57BI/6 mice, single 2 mg/kg IV, plasma, read-out: AUCINF—obs (converted)) is 1440 ng·h/mL. For the same compound, the clearance in series [1] (mouse, male C57BI/6 mice, single 2 mg/kg IV, plasma, read-out: Cl—obs) amounted to 25.2 mL/min/kg. Further, in series [1] (mouse, male C57BI/6 mice, single 2 mg/kg IV, plasma, read-out: MRTINF—obs), the MRT inf was determined as 1.96 h. Further, the Vd in [1] (mouse, male C57BI/6 mice, single 2 mg/kg IV, plasma, read-out: VSS—obs) is 2.94 L/kg. On ITK [2], the “degradation of ITK protein (immunoblot)” value is listed as “pronounced degradation of ITK protein”. In addition, the “degradation of ITK protein (immunoblot)” value on ITK [3] (4 hours or 18 hours) was “rapid and pronounced degradation of ITK protein”. At ITK [3] (18 hours), the “concentration at which ITK degradation is evident” value is 1 nM; the “concentration of maximal ITK degradation” value turned out to be 1000 nM; the “degradation of ITK protein (immunoblot)” value is “rapid and pronounced degradation of ITK protein”. Also, the “ITK degradation induced by compound 1 on treatment with MLN4924” value on ITK [4] is listed as “rescued the degradation”. The “ITK degradation induced by compound 1 after pre-treatment with excess BMS509744” value on ITK [5] is recorded as “rescued the degradation”. Moreover, at ITK [6], the “degradation of ITK protein in vivo (immunoblot of purified tumor cells)” value is “significant degradation of ITK protein in vivo”.

For the compound `COc1cc(C)c(Sc2cnc(NC(=O)c3ccc(N4CCN(CCCCCCCNC(=O)COc5cc6c7c(cccc7c5)C(=O)N(C5CCC(=O)NC5=O)C6=O)CC4)cc3)s2)cc1C(=O)N1CCN(C(C)=O)CC1` (stereo not drawn) [compound 2, N-(5-((5-(4-acetylpiperazine-1-carbonyl)-4-methoxy-2-methylphenyl)thio)thiazol-2-yl)-4-(4-(7-(2-((2-(2,6-dioxopiperidin-3-yl)-1,3-dioxo-2,3-dihydro-1H-benzo[de]isoquinolin-5-yl)oxy)acetamido)heptyl)piperazin-1-yl)benzamide], the “proteins downregulated (relative protein abundance)” value in the series on Molt4 cells is listed as “selectively downregulated ITK”. Moreover, at ITK [3] (18 hours), the “concentration at which ITK degradation is evident” value is listed as 100 nM; the “concentration of maximal ITK degradation” value came out at 1000 nM; the “degradation of ITK protein (immunoblot)” value was “rapid and pronounced degradation of ITK protein”.
